Patent US20250382261A1 (The Broad Institute, Inc., priority 2021, published 2025)
Like-named read-outs stand apart in the source and are kept apart here.

Key:
[1] = system: A. baumannii (ATCC 17978); experiment: Checkerboard potentiation assay with novobiocin; format: cell-based; settings: with novobiocin
Procedure: (§1) Bacterial strains and culture conditions. The following bacterial strains were used within this study; A. baumannii (ATCC 17978), K. pneumoniae (ATCC 43816), K. pneumoniae (ATCC 43816, expressing pGDP2:mcr-1), P. aeruginosa (PA01). Bacterial growth was in cation-adjusted Mueller-Hinton broth (MHB) at 37° C., and inoculum was prepared according to CLSI protocol (CLSI 2015).
(§2) Potentiation assays. Checkerboard analyses were conducted with each drug serially diluted at eight concentrations to create an 8×8 matrix. At least two biological replicates were done for each combination, and the means were used for FIC calculation. The FIC for each drug was calculated by dividing the concentration of the drug in the presence of codrug in a combination for a well showing <10% growth by the MIC for that drug alone. The FIC index (FICI) is the sum of the two FICs, with an FIC index≤0.5 deemed synergistic.

[2] = system: K. pneumoniae (ATCC 43816); experiment: Checkerboard potentiation assay with novobiocin; format: cell-based
Procedure: as §1, §2
(§3) To probe the spectrum of activity of the present analogs beyond A. baumannii, their interactions with novobiocin were assessed against the high-priority Gram-negative pathogens Klebsiella pneumoniae and P. aeruginosa (FIG. 5).

[3] = system: P. aeruginosa (PA01); experiment: Checkerboard potentiation assay with novobiocin; format: cell-based
Procedure: as §1, §2, §3

[4] = system: LPS from E. coli EH100; experiment: BODIPY-Cadaverine LPS displacement assay; format: binding; settings: BODIPY-cadaverine displacement from E. coli EH100 LPS
Procedure: BODIPY-Cadaverine LPS displacement assay. The BODIPY-cadaverine LPS displacement assay was performed as previously described (Wood et al. 2004. Combinatorial Chemistry & High Throughput Screening, 7: 239-49; Klobucar et al. 2021. ACS Chemical Biology, 16: 929-42). A solution of BODIPY-cadaverine (2.25 μM) and LPS from E. coli EH100 (5.25 μM) in Tris-HCl buffer (50 mM, pH 7.4) was prepared. 0.5 μL of compound and 49.5 μL of the Tris-HCl buffer with BODIPY-cadaverine and LPS solution were added to a Corning nonbinding surface black 384-well polystyrene plate. Fluorescence intensity was measured immediately with an excitation wavelength of 580 nm and an emission wavelength of 620 nm. EC50 values were calculated using a three-parameter logistic curve in GraphPad Prism 9.

[5] = HEK293 cytotoxicity assay (Cell Titer Glo); format: cell-based; settings: human
Procedure: Cytotoxicity Assays. HEK293 (ATCC CRL 1573) cells were left to adhere for 18 h at 7.5×10^3 cells per well in DMEM containing 10% FBS and 2 mM L-glutamine. Compound was added directly into the well. After 48 h of treatment Promega Cell Titer Glo 2.0® was added, shaken for 10 min, and luminescence read (Biotek Neo). AC50 values were calculated using a four-parameter logistic curve in GraphPad Prism 9.
Focusing on only the analogs that retained synergistic activity with novobiocin (FICI≤0.5), half-maximal activity (AC50) values were calculated against HEK293 cells using a CellTiter-Glo® based assay to approximate cell viability. […] Specifically, the FICI value for both P35 and P36 was 0.094 against A. baumannii, while their AC50 values were 235 μg/mL and 200 μg/mL, respectively.

[6] = system: A. baumannii ATCC 17978; experiment: Systemic A. baumannii murine infection model; format: in vivo, mouse; settings: for Animals rescued in combination with novobiocin: 10 mg/kg analog + 50 mg/kg novobiocin i.p. 2 h post-infection, endpoint 5 days
Procedure: Mouse infection models. Animal experiments were conducted according to guidelines set by the Canadian Council on Animal Care using protocols approved by the Animal Review Ethics Board at McMaster University under Animal Use Protocol #20-12-43. Before infection, mice were relocated at random from a housing cage to treatment or control cages. No animals were excluded from analyses, and blinding was considered unnecessary. Seven- to nine-week-old female C57BL/6 mice (Charles River) were infected intraperitoneally with ˜2×10^6 CFU of A. baumannii ATCC 17978, with 5% porcine mucin (Sigma-Aldrich). Infections were allowed to establish for 2 h, and treatments were administered intraperitoneally. For the survival study, the clinical endpoint was determined using a five-point body condition score analyzing weight loss, decrease in body temperature, respiratory distress, hampered mobility and hunched posture. Experimental endpoint was defined as five days post-infection for mice not reaching clinical endpoint. For CFU/mL enumeration, animals were infected as described above and euthanized 6 h post-infection, and blood was collected into sterile 2 ml heparinized tubes (BD Scientific) serially diluted in PBS and plated onto solid LB. Plates were incubated overnight at 37° C., and colonies were quantified to determine bacterial load.
This was directly compared to the activity of P35 and P36 in this model (all administered at 10 mg/kg) in combination with novobiocin (50 mg/kg).
For this experiment the same A. baumannii infection model was used, however, endpoint was defined as 6 h post-infection, at which point blood was collected for CFU/mL enumeration (FIG. 2b).

[7] = system: HepG2 cells; settings: human, 72 h
[8] = system: A. baumannii ATCC 17978; settings: murine systemic A. baumannii infection, Stokes et al. 2017; cited from earlier work
[9] = in vivo; settings: female, C57BL/6, mouse, plasma, iv, 1 mg/kg
Procedure: (§4) Plasma samples were taken from 3 mice per time point (5, 15, 30 min; 1, 2, 4, 6 and 8 h post-dose). An aliquot of 2 μL sample was protein precipitated with 60 μL methanol, the mixture was vortex-mixed well and centrifuged at 13000 rpm for 10 min at 4° C. 2 μL supernatant was injected for LC-MS/MS analysis. The mean plasma concentration and the standard deviation from all 3 animals within each time point were calculated. PK parameters were calculated with a non-compartmental analysis. The mean plasma concentrations from all 3 mice at each time point were used in the calculations.

[10] = in vitro; settings: human
[11] = system: human red blood cells; experiment: Hemolysis in human blood; settings: 100 μM, 45 min, 37° C.
[12] = Pharmacokinetic analysis after single intravenous dose
Procedure: as §4

In the case of `N=C(N)c1ccc(OCCCCCOc2ccc(C(=N)N)cc2)cc1` [Pentamidine, pentamidine, reference compound], the “FICI AB” value [1] is reported as 0.25, the “FICI KP” value [2] is reported as 0.375 and the “FICI PA” value [3] is reported as 0.75. For the same molecule, the “LPS Displacement (EC50, μg/mL)” value [4] was 231 µg/mL, the IC50 at 48 h ([5]; HEK293 cells (ATCC CRL 1573), 48 h treatment, Cell Titer Glo, called AC50 in the text, read-out: HEK293T Cytotoxicity (IC50, μg/mL)) was 73 µg/mL and the “Reduction in blood CFU/mL in combination with novobiocin” value ([6]; 10 mg/kg + 50 mg/kg novobiocin, 6 h post-infection) was 2.08 log10. The “Animals rescued in combination with novobiocin” value [6] was 100%, the AC50 [7] was > 150000 nM and the “Animals rescued in combination with novobiocin (previous work)” value [8] was 100%. The AUC(0-inf) [9] was 119 ng·h/mL, the AUC(0-t) [9] was 116 ng·h/mL and the C0 [9] was 1260 ng/mL. The MRT inf [9] was 24.7 min, the MRT last [9] was 13.7 min and the Vd [9] was 3.45 L/kg. The clearance [9] was 140 mL/min/kg, the half-life [9] was 118 min and the AC50 at 72 h ([10]; HepG2 viability / cell cycle arrest AC50, HepG2, 72 h incubation) was < 0.293 µM. For the same molecule, the AC50 at 72 h ([10]; Nuclear Size AC50 (μM)) was 2.28 µM, the AC50 at 72 h ([10]; Phospholipidosis AC50 (μM)) was > 150 µM and the “Hemolysis of human blood” value [11] was “Neither compound was hemolytic”. For the same molecule, the “Adverse effects after single intravenous dose” value ([12]; female C57BL/6 mice, 1 mg/kg i.v. in water) was “no adverse effects”, the “AUCExtra (%)” value ([12]; mouse, 1 mg/kg IV) was 2.76% and the “AUMCExtra (%)” value ([12]; mouse, 1 mg/kg IV) was 45.8%. For the same molecule, the “Tlast” value ([12]; mouse, 1 mg/kg IV) was 4.00 h.
In the case of `CO[C@@H]1[C@@H](OC(N)=O)[C@@H](O)[C@H](Oc2ccc3c(O)c(NC(=O)c4ccc(O)c(CC=C(C)C)c4)c(=O)oc3c2C)OC1(C)C` [novobiocin, reference compound], the “Impact on blood CFU/mL, treatment alone” value ([6]; alone, 6 h post-infection, compared to control-treated animals) is reported as “no significant impact”.
With `N=C(N)c1ccc(OCCN(CCOc2ccc(C(=N)N)cc2)Cc2ccccc2)cc1` [Analog P36] the “FICI AB” value [1] was 0.094, the “FICI PA” value [3] was 0.5 and the “LPS Displacement (EC50, μg/mL)” value [4] was 165.9 µg/mL. The IC50 at 48 h ([5]; HEK293T Cytotoxicity (IC50, μg/mL)) was 200 µg/mL and the “Animals rescued in combination with novobiocin” value [6] was 80%.
